Where a name gives a salt, the structure may show the parent alone.
System: MEK
Experiment: Cellular Assay for Measuring MEK Inhibition (inhibition of ERK phosphorylation in C26 cells, Western blot)
Assay type: cell-based, murine
Settings: for % Inhibition @ 0.1 μM / % Inhibition @ 1 μM / % Inhibition @ 10 μM: ERK phosphorylation in C26 cells; for IC50: inhibition of ERK phosphorylation in murine colon 26 (C26) carcinoma cells, determined graphically from dose response curve
Outline: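 Read-out is phospho-ERK1/2 by Western blot, normalized against total ERK1/2 after stripping and re-probing. Murine C26 colon carcinoma cells in exponential growth were exposed to a range of compound concentrations at 37° C before lysis.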

Row | Structure (SMILES) | % Inhibition @ 0.1 μM [%] | % Inhibition @ 1 μM [%] | IC50 [µM] | % Inhibition @ 10 μM [%]
1 | CCC(O)CONC(=O)c1ccc(F)c(F)c1Nc1ccc(I)cc1F (stereo not drawn) [Example 112, 3,4-Difluoro-2-(2-fluoro-4-iodo-phenylamino)-N-(2-hydroxy-butoxy)-benzamide] | 95.2 | 95.5 | – | –
2 | COCCONC(=O)c1cc(Cl)c(F)c(F)c1Nc1ccc(I)cc1C [Example 141, 5-Chloro-3,4-difluoro-2-(4-iodo-2-methyl-phenylamino)-N-(2-methoxy-ethoxy)-benzamide] | 38 | 92.7 | – | –
3 | Cc1cc(I)ccc1Nc1c(C(=O)NOCC(O)CN2CCOCC2)cc(Cl)c(F)c1F (stereo not drawn) [Example 150, 5-Chloro-3,4-difluoro-N-(2-hydroxy-3-morpholin-4-yl-propoxy)-2-(4-iodo-2-methyl-phenylamino)-benzamide] | 49 | 99.9 | – | –
4 | CCC(O)CONC(=O)c1cc(Cl)c(F)c(F)c1Nc1ccc(I)cc1C (stereo not drawn) [Example 111, 5-Chloro-3,4-difluoro-N-(2-hydroxy-butoxy)-2-(4-iodo-2-methyl-phenylamino)-benzamide] | 78 | 93.4 | – | –
5 | Cc1cc(I)ccc1Nc1c(C(=O)NOCCNc2ccccc2)cc(Br)c(F)c1F [Example 231, 5-Bromo-3,4-difluoro-2-(4-iodo-2-methyl-phenylamino)-N-(2-phenylamino-ethoxy)-benzamide] | – | – | 0.067 | –
6 | CC(CO)ONC(=O)c1ccc(F)c(F)c1Nc1ccc(I)cc1Cl (stereo not drawn) [Example 120, 2-(2-Chloro-4-iodo-phenylamino)-3,4-difluoro-N-(2-hydroxy-1-methyl-ethoxy)-benzamide] | – | – | 0.014 | –
7 | O=C(NOCCNc1ccccc1)c1ccc(F)c(F)c1Nc1ccc(I)cc1Cl [Example 232, 2-(2-Chloro-4-iodo-phenylamino)-3,4-difluoro-N-(2-phenylamino-ethoxy)-benzamide] | – | – | 0.022 | –
8 | CC(O)CONC(=O)c1cc(Cl)c(F)c(F)c1Nc1ccc(F)cc1F (stereo not drawn) [Example 166, 5-Chloro-2-(2,4-difluoro-phenylamino)-3,4-difluoro-N-(2-hydroxy-propoxy)-benzamide] | 0 | 31.9 | – | 88.7
9 | Cc1cc(I)ccc1Nc1c(C(=O)NOCC(O)COc2ccccc2)ccc(F)c1F (stereo not drawn) [Example 188, 3,4-Difluoro-N-(2-hydroxy-3-phenoxy-propoxy)-2-(4-iodo-2-methyl-phenylamino)-benzamide] | – | – | 0.044 | –
10 | CCC(O)CONC(=O)c1ccc(F)c(F)c1Nc1ccc(I)cc1C (stereo not drawn) [Example 109, 3,4-Difluoro-N-(2-hydroxy-butoxy)-2-(4-iodo-2-methyl-phenylamino)-benzamide] | – | – | 0.038 | –
11 | O=C(NOCC(O)COc1ccccc1)c1ccc(F)c(F)c1Nc1ccc(I)cc1F (stereo not drawn) [Example 191, 3,4-Difluoro-2-(2-fluoro-4-iodo-phenylamino)-N-(2-hydroxy-3-phenoxy-propoxy)-benzamide] | – | – | 0.006 | –
12 | Cc1cc(I)ccc1Nc1c(C(=O)NOCC(O)CO)ccc(F)c1F (stereo not drawn) [Example 89, N-(2,3-Dihydroxy-propoxy)-3,4-difluoro-2-(4-iodo-2-methyl-phenylamino)-benzamide] | – | – | 0.012 | –
13 | O=C(NOCC(O)C(F)(F)F)c1ccc(F)c(F)c1Nc1ccc(F)cc1F (stereo not drawn) [Example 212, 2-(2,4-Difluoro-phenylamino)-3,4-difluoro-N-(3,3,3-trifluoro-2-hydroxy-propoxy)-benzamide] | – | 20.1 | – | 85.1
14 | CC(C)(O)CONC(=O)c1cc(Cl)c(F)c(F)c1Nc1ccc(I)cc1Cl [Example 175, 5-Chloro-2-(2-chloro-4-iodo-phenylamino)-3,4-difluoro-N-(2-hydroxy-2-methyl-propoxy)-benzamide] | – | – | 0.18 | –
15 | O=C(NOCC(O)COc1ccccc1)c1cc(F)c(F)cc1Nc1ccc(I)cc1F (stereo not drawn) [Example 193, 4,5-Difluoro-2-(2-fluoro-4-iodo-phenylamino)-N-(2-hydroxy-3-phenoxy-propoxy)-benzamide] | – | – | 0.01 | –
16 | COCCONC(=O)c1cc(Cl)c(F)c(F)c1Nc1ccc(I)cc1Cl [Example 140, 5-Chloro-2-(2-chloro-4-iodo-phenylamino)-3,4-difluoro-N-(2-methoxy-ethoxy)-benzamide] | – | – | 0.45 | –
17 | CC(O)CONC(=O)c1ccc(F)c(F)c1Nc1ccc(I)cc1F (stereo not drawn) [Example 164, 3,4-Difluoro-2-(2-fluoro-4-iodo-phenylamino)-N-(2-hydroxy-propoxy)-benzamide] | – | – | 0.003 | –
18 | O=C(NOCC(O)COc1ccccc1)c1ccc(F)c(F)c1Nc1ccc(I)cc1Cl (stereo not drawn) [Example 183] | – | – | 0.053 | –
19 | CC(C)(O)CONC(=O)c1cc(Cl)c(F)c(F)c1Nc1ccc(I)cc1F [Example 179, 5-Chloro-3,4-difluoro-2-(2-fluoro-4-iodo-phenylamino)-N-(2-hydroxy-2-methyl-propoxy)-benzamide] | 90.4 | 99.3 | – | –

Row | Structure (SMILES) | % Inhibition @ 0.1 μM [%] | % Inhibition @ 1 μM [%] | IC50 [µM] | % Inhibition @ 10 μM [%]
20 | CC(O)CONC(=O)c1ccc(F)c(F)c1Nc1ccc(F)cc1F (stereo not drawn) [Example 167, 2-(2,4-Difluoro-phenylamino)-3,4-difluoro-N-(2-hydroxy-propoxy)-benzamide] | – | 80.5 | – | 89.2
21 | CCC(O)CONC(=O)c1cc(F)c(F)c(F)c1Nc1ccc(I)cc1C (stereo not drawn) [Example 106, 3,4,5-Trifluoro-N-(2-hydroxy-butoxy)-2-(4-iodo-2-methyl-phenylamino)-benzamide] | 13.2 | 81.6 | – | –
22 | O=C(NOCC(O)CO)c1ccc(F)c(F)c1Nc1ccc(I)cc1Cl (stereo not drawn) [Example 86, 2-(2-Chloro-4-iodo-phenylamino)-N-(2,3-dihydroxy-propoxy)-3,4-difluoro-benzamide] | – | – | 0.019 | –
23 | CC(O)CONC(=O)c1cc(Cl)c(F)c(F)c1Nc1ccc(I)cc1F (stereo not drawn) [Example 165, 5-Chloro-3,4-difluoro-2-(2-fluoro-4-iodo-phenylamino)-N-(2-hydroxy-propoxy)-benzamide] | – | – | 0.004 | –
24 | O=C(NOCC(O)CN1CCOCC1)c1cc(F)c(F)c(F)c1Nc1ccc(I)cc1Cl (stereo not drawn) [Example 145, 2-(2-Chloro-4-iodo-phenylamino)-3,4,5-trifluoro-N-(2-hydroxy-3-morpholin-4-yl-propoxy)-benzamide] | – | – | 0.1 | –
25 | CC(C)(CO)CONC(=O)c1cc(Cl)c(F)c(F)c1Nc1ccc(F)cc1F [Example 203, 5-Chloro-2-(2,4-difluoro-phenylamino)-3,4-difluoro-N-(3-hydroxy-2,2-dimethyl-propoxy)-benzamide] | – | 0 | – | 37.4
26 | Cc1cc(I)ccc1Nc1c(C(=O)NOCC(O)COc2ccccc2)cc(Br)c(F)c1F (stereo not drawn) [Example 187, 5-Bromo-3,4-difluoro-N-(2-hydroxy-3-phenoxy-propoxy)-2-(4-iodo-2-methyl-phenylamino)-benzamide] | 13.8 | 83.3 | – | –
27 | CCC(O)CONC(=O)c1cc(Br)c(F)c(F)c1Nc1ccc(I)cc1Cl (stereo not drawn) [Example 107, 5-Bromo-2-(2-chloro-4-iodo-phenylamino)-3,4-difluoro-N-(2-hydroxy-butoxy)-benzamide] | – | – | 0.076 | –
28 | CC(O)CONC(=O)c1cc(F)c(F)c(F)c1Nc1ccc(I)cc1Cl (stereo not drawn) [Example 160, 2-(2-Chloro-4-iodo-phenylamino)-3,4,5-trifluoro-N-(2-hydroxy-propoxy)-benzamide] | 71.9 | 96.8 | – | –
29 | Cc1cc(I)ccc1Nc1c(C(=O)NOC(C)CO)cc(Br)c(F)c1F (stereo not drawn) [Example 124, 5-Bromo-3,4-difluoro-N-(2-hydroxy-1-methyl-ethoxy)-2-(4-iodo-2-methyl-phenylamino)-benzamide] | 78 | 96.9 | – | –
30 | Cc1cc(I)ccc1Nc1c(C(=O)NOCC(O)CN2CCOCC2)cc(Br)c(F)c1F (stereo not drawn) [Example 147, 5-Bromo-3,4-difluoro-N-(2-hydroxy-3-morpholin-4-yl-propoxy)-2-(4-iodo-2-methyl-phenylamino)-benzamide] | – | – | 0.1 | –
31 | O=C(NOCC(O)COc1ccccc1)c1cc(F)c(F)c(F)c1Nc1ccc(I)cc1Cl (stereo not drawn) [Example 184, 2-(2-Chloro-4-iodo-phenylamino)-3,4,5-trifluoro-N-(2-hydroxy-3-phenoxy-propoxy)-benzamide] | 16.1 | 82.5 | – | –
32 | Cc1cc(I)ccc1Nc1c(C(=O)NOCC(O)COc2ccccc2)cc(F)c(F)c1F (stereo not drawn) [Example 185, 3,4,5-Trifluoro-N-(2-hydroxy-3-phenoxy-propoxy)-2-(4-iodo-2-methyl-phenylamino)-benzamide] | 6.2 | 71.9 | – | –
33 | CNCCONC(=O)c1ccc(F)c(F)c1Nc1ccc(I)cc1F [Example 79, 3,4-Difluoro-2-(2-fluoro-4-iodo-phenylamino)-N-(2-methylamino-ethoxy)-benzamide, hydrochloride salt] | – | – | 0.02 | –
34 | Cc1cc(I)ccc1Nc1c(C(=O)NOCCNCC(F)(F)F)ccc(F)c1F [Example 80, 3,4-Difluoro-2-(4-iodo-2-methyl-phenylamino)-N-[2-(2,2,2-trifluoro-ethylamino)-ethoxy]-benzamide; hydrochloride] | – | – | 0.49 | –
35 | Cc1cc(I)ccc1Nc1c(C(=O)NOCCC(O)CO)ccc(F)c1F (stereo not drawn) [Example 95, N-(3,4-Dihydroxy-butoxy)-3,4-difluoro-2-(4-iodo-2-methyl-phenylamino)-benzamide] | – | – | 0.19 | –
36 | Cc1cc(I)ccc1Nc1c(C(=O)NOCC(C)O)ccc(F)c1F (stereo not drawn) [Example 162, 3,4-Difluoro-N-(2-hydroxy-propoxy)-2-(4-iodo-2-methyl-phenylamino)-benzamide] | – | – | 0.00785 | –
37 | CC(CO)ONC(=O)c1cc(Cl)c(F)c(F)c1Nc1ccc(I)cc1Cl (stereo not drawn) [Example 127, 5-Chloro-2-(2-chloro-4-iodo-phenylamino)-3,4-difluoro-N-(2-hydroxy-1-methyl-ethoxy)-benzamide] | – | – | 0.025 | –
38 | COCCONC(=O)c1ccc(F)c(F)c1Nc1ccc(I)cc1Cl [Example 134, 2-(2-Chloro-4-iodo-phenylamino)-3,4-difluoro-N-(2-methoxy-ethoxy)-benzamide] | – | – | 0.37 | –

Source: patent publication US6960614B2, “Oxygenated esters of 4-lodo phenylamino benzhydroxamic acids” (Warner-Lambert Company, priority 2000, dated 2005)
